Reference: patent US20110034472A1, “Novel Compounds for Treatment of Cancer and Disorders Associated With Angiogenesis Function” (UNIVERSITY OF SOUTHERN CALIFORNIA, priority 2004, published 2011)

Tests used:
HL60 leukemia cells = assay: Sensitivity of various cancer cells to SC144, HL60; assay type: cell-based; conditions: Homo sapiens, HL-60
Source text: (§1) The studies were expanded to other cell lines. […] Subnanomolar to low nanomolar potency was also observed in HCT-116 and HT29 colon cancer cell lines (Table 2).

RPMI-8226 leukemia cells = assay: Sensitivity of various cancer cells to SC144, RPMI-8226; assay type: cell-based; conditions: Homo sapiens
Source text: as §1

SF-295 CNS cancer cells = assay: Sensitivity of various cancer cells to SC144, SF-295; assay type: cell-based; conditions: Homo sapiens
Source text: as §1

[1] = test system: HCT-116 colon cancer cells; assay: Sensitivity of various cancer cells to SC144, HCT-116; assay type: cell-based; conditions: Homo sapiens
Source text: as §1

MDA-MB-435 cells = assay: Flow cytometric cell cycle analysis, SC144; assay type: cell-based, human; conditions: 24 h of treatment, SC144 3 uM
Source text: Similar effects were obtained on the asynchronous prostate cancer cell line DU145.

HT29 colon cancer cells = assay: MTT cytotoxicity assay, HT 29; assay type: cell-based, human; conditions: Homo sapiens, 72 h
Source text: Human breast cancer cells MDA-MB-435 and colon cancer HT29, p53 mutant were purchased from the American Type Cell Culture (Manassas, Va.). The HCT116 P53^+/+ and HCT116 P53^−/− cells were kindly provided by Dr. Bert Vogelstein (Johns Hopkins Medical Institutions, Baltimore, Md.). Human prostate cancer cells, LNCaP, were kindly provided by Richard Cote (University of Southern California Keck School of Medicine). Cells were maintained as monolayer cultures in RPMI 1640 media supplemented with 10% fetal bovine serum (Gemini-Bioproducts, Woodland, Calif.) and 2 mmol/L L-glutamine at 37° C. in a humidified atmosphere of 5% CO2. To remove the adherent cells from the flask for passaging and counting, cells were washed with PBS without calcium or magnesium, incubated with a small volume of 0.25% trypsin-EDTA solution (Sigma-Aldrich, St. Louis, Mo.) for 5-10 min, and washed with culture medium and centrifuged. All experiments were performed using cells at exponential growth stage. Cells were routinely checked for mycoplasma contamination using a PCR-based assay (Stratagene, Cambridge, UK).
Cytotoxicity was assessed by a 3-(4,5-dimethylthiazol-2-yl)-2,5-diphenyltetrazolium bromide (MTT) assay as previously described.^9 Briefly, cells were seeded in 96-well microtiter plates and allowed to attach. Cells were subsequently treated with continuous exposure to the corresponding drug for 72 h. An MTT solution (at a final concentration of 0.5 mg/mL) was added to each well, and cells were incubated for 4 h at 37° C. After removal of the medium, DMSO was added and the absorbance was read at 570 nm. All assays were done in triplicate. The IC50 was then determined for each drug from a plot of log (drug concentration) versus percentage of cells killed.

O=C(NNc1nc2cc(F)ccc2n2cccc12)c1cnccn1 [SC144, Pyrazine-2-carboxylic acid N′-(7-fluoro-pyrrolo[1,2-a]quinoxalin-4-yl)-hydrazide]
CC50 (HL60 leukemia cells): 270 nM | CC50 (RPMI-8226 leukemia cells): 250 nM | CC50 (SF-295 CNS cancer cells): 420 nM | CC50 [1]: 17 nM | cells retained in S-phase (MDA-MB-435 cells): 80% | IC50 (HT29 colon cancer cells): 900 ± 60 nM
